# In patent publication US20240109903A1, “SUBSTITUTED HETEROCYCLES FOR TREATING CANCER” (Northwestern University, priority 2022, published 2024):
# Experiments:
# Format in all cases: cell-based
# M14 = assay: NCI 60 five-dose screen M14; details: Homo sapiens, five-dose
# PC-3 = assay: NCI 60 five-dose screen PC-3; details: Homo sapiens, five-dose
# RXF 393 = assay: NCI 60 five-dose screen RXF 393; details: Homo sapiens, five-dose
# MALME-3M = assay: NCI 60 five-dose screen MALME-3M; details: Homo sapiens, MALME-3M, five-dose
# SW-620 = assay: NCI 60 five-dose screen SW-620; details: Homo sapiens, five-dose
# HL-60(TB) = assay: NCI 60 five-dose screen HL-60(TB); details: Homo sapiens, five-dose
# T-47D = assay: NCI 60 five-dose screen T-47D; details: Homo sapiens, T47D, five-dose
# U251 = assay: NCI 60 five-dose screen U251; details: Homo sapiens, U-251, five-dose
# RPMI-8226 = assay: NCI 60 five-dose screen RPMI-8226; details: Homo sapiens, five-dose
# SNB-19 = assay: NCI 60 five-dose screen SNB-19; details: Homo sapiens, five-dose
# SF-539 = assay: NCI 60 five-dose screen SF-539; details: Homo sapiens, five-dose
# MCF7 = assay: NCI 60 five-dose screen MCF7; details: Homo sapiens, five-dose
# OVCAR-3 = assay: NCI 60 five-dose screen OVCAR-3; details: Homo sapiens, five-dose
# 786-0 = assay: NCI 60 five-dose screen 786-0; details: Homo sapiens, five-dose
# MOLT-4 = assay: NCI 60 five-dose screen MOLT-4; details: Homo sapiens, five-dose
# ACHN = assay: NCI 60 five-dose screen ACHN; details: Homo sapiens, five-dose
# NCI-H522 = assay: NCI 60 five-dose screen NCI-H522; details: Homo sapiens, five-dose
# SK-MEL-28 = assay: NCI 60 five-dose screen SK-MEL-28; details: Homo sapiens, five-dose
# TK-10 = assay: NCI 60 five-dose screen TK-10; details: Homo sapiens, five-dose
# HS 578T = assay: NCI 60 five-dose screen HS 578T; details: Homo sapiens, five-dose
# NCI-H460 = assay: NCI 60 five-dose screen NCI-H460; details: Homo sapiens, five-dose
# IGROV1 = assay: NCI 60 five-dose screen IGROV1; details: Homo sapiens, IGROV-1, five-dose
# MDA-MB-435 = assay: NCI 60 five-dose screen MDA-MB-435; details: Homo sapiens, five-dose
# A549/ATCC = assay: NCI 60 five-dose screen A549/ATCC; details: Homo sapiens, five-dose
# [1] = read-out: LC50 (the source's name) (converted)
# [2] = read-out: LC50 (the source's name)
smiles,measurement,setting,value
FC(F)(F)c1cc2c(Cl)ncnc2n1CCC1CCOCC1 [NUCC-0226674],GI50,M14,3.72 µM
same,IC50,M14,6.31 µM
same,IC (TGI),M14,16.2 µM
same,CC50,M14; [1],50.1 µM
same,GI50,PC-3,2950 nM
same,IC50,PC-3,4.27 µM
same,IC (TGI),PC-3,11.2 µM
same,CC50,PC-3; [1],45.7 µM
same,GI50,RXF 393,8.71 µM
same,IC50,RXF 393,24 µM
same,IC (TGI),RXF 393,21.9 µM
same,CC50,RXF 393; [1],51.3 µM
same,GI50,MALME-3M,15.1 µM
same,IC50,MALME-3M,29.5 µM
same,IC (TGI),MALME-3M,29.5 µM
same,CC50,MALME-3M; [1],56.2 µM
same,GI50,SW-620,12 µM
same,IC50,SW-620,17.4 µM
same,IC (TGI),SW-620,28.2 µM
same,CC50,SW-620; [1],67.6 µM
same,GI50,HL-60(TB),2240 nM
same,IC50,HL-60(TB),4.17 µM
same,IC (TGI),HL-60(TB),5.01 µM
same,CC50,HL-60(TB); [1],44.7 µM
same,GI50,T-47D,20.4 µM
same,IC50,T-47D,47.9 µM
same,IC (TGI),T-47D,60.3 µM
same,CC50,T-47D; [2],≥ 100 µM
same,GI50,U251,2090 nM
same,IC50,U251,3.24 µM
same,IC (TGI),U251,5.62 µM
same,CC50,U251; [1],28.2 µM
same,GI50,RPMI-8226,14.5 µM
same,IC50,RPMI-8226,25.7 µM
same,IC (TGI),RPMI-8226,41.7 µM
same,CC50,RPMI-8226; [2],≥ 100 µM
same,GI50,SNB-19,5.25 µM
same,IC50,SNB-19,12.3 µM
same,IC (TGI),SNB-19,18.2 µM
same,CC50,SNB-19; [1],43.7 µM
same,GI50,SF-539,13.8 µM
same,IC50,SF-539,24.5 µM
same,IC (TGI),SF-539,27.5 µM
same,CC50,SF-539; [1],56.2 µM
same,GI50,MCF7,11.5 µM
same,IC50,MCF7,19.1 µM
same,IC (TGI),MCF7,36.3 µM
same,CC50,MCF7; [1],≥ 100 µM
same,GI50,OVCAR-3,12.3 µM
same,IC50,OVCAR-3,23.4 µM
same,IC (TGI),OVCAR-3,27.5 µM
same,CC50,OVCAR-3; [1],61.7 µM
same,GI50,786-0,16.2 µM
same,IC50,786-0,28.2 µM
same,IC (TGI),786-0,32.4 µM
same,CC50,786-0; [1],64.6 µM
same,GI50,MOLT-4,2340 nM
same,IC50,MOLT-4,4.27 µM
same,IC (TGI),MOLT-4,5.5 µM
same,CC50,MOLT-4; [2],≥ 100 µM
same,GI50,ACHN,11 µM
same,IC50,ACHN,18.6 µM
same,IC (TGI),ACHN,26.3 µM
same,CC50,ACHN; [1],61.7 µM
same,GI50,NCI-H522,1700 nM
same,IC50,NCI-H522,3.39 µM
same,IC (TGI),NCI-H522,3.72 µM
same,CC50,NCI-H522; [1],8.13 µM
same,GI50,SK-MEL-28,2630 nM
same,IC50,SK-MEL-28,4.57 µM
same,IC (TGI),SK-MEL-28,6.03 µM
same,CC50,SK-MEL-28; [1],21.4 µM
same,GI50,TK-10,17.4 µM
same,IC50,TK-10,36.3 µM
same,IC (TGI),TK-10,36.3 µM
same,CC50,TK-10; [1],77.6 µM
same,GI50,HS 578T,12 µM
same,IC50,HS 578T,70.8 µM
same,IC (TGI),HS 578T,45.7 µM
same,CC50,HS 578T; [2],≥ 100 µM
same,GI50,NCI-H460,2400 nM
same,IC50,NCI-H460,3.55 µM
same,IC (TGI),NCI-H460,5.62 µM
same,CC50,NCI-H460; [1],22.4 µM
same,GI50,IGROV1,1780 nM
same,IC50,IGROV1,3.16 µM
same,IC (TGI),IGROV1,3.47 µM
same,CC50,IGROV1; [1],6.76 µM
same,GI50,MDA-MB-435,5.01 µM
same,IC50,MDA-MB-435,8.13 µM
same,IC (TGI),MDA-MB-435,18.2 µM
same,CC50,MDA-MB-435; [1],49 µM
same,GI50,A549/ATCC,21.9 µM
same,IC50,A549/ATCC,34.7 µM
same,IC (TGI),A549/ATCC,56.2 µM
same,CC50,A549/ATCC; [1],≥ 100 µM
